Reference: patent US12187723B2 (BRISTOL-MYERS SQUIBB COMPANY, priority 2019, dated 2025)

What was measured:
human TLR9 = target: T1, human TLR9 (Homo sapiens, UniProt Q9NR96); assay: TLR9 inhibition reporter assay (HEK-Blue SEAP); type: cell-based; details: HEK-Blue cells overexpressing human TLR9, ODN2006 5 nM, 22 hour incubation
T1 construct: host or cells: HEK-Blue cells
T1 sequence (Q9NR96 26-1032): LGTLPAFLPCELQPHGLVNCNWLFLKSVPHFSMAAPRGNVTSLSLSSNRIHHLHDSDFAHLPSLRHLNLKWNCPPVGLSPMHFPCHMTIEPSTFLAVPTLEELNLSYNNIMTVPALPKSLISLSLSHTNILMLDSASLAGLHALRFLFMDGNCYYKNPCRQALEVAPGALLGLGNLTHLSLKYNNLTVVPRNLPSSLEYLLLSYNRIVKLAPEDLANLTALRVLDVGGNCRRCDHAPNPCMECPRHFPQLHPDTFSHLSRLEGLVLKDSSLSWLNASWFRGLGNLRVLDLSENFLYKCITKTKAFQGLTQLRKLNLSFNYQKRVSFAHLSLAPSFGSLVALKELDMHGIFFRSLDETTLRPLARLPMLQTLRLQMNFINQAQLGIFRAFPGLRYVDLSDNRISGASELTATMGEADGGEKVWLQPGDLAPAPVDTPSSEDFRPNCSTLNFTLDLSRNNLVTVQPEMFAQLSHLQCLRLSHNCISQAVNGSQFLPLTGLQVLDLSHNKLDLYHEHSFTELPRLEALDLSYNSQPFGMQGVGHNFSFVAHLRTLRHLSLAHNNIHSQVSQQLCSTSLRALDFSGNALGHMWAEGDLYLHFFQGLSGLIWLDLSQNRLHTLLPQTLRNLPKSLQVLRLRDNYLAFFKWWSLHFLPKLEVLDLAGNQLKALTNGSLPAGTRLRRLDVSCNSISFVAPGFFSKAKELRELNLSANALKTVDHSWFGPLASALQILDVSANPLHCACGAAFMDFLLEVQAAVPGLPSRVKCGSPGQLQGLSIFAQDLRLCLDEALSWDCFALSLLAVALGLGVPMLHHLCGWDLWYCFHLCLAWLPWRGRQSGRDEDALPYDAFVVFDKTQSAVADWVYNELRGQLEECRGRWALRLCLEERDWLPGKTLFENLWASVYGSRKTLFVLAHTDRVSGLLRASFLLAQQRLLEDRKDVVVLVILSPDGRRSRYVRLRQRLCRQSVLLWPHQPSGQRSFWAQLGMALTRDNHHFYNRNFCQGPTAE
How it was run: (§1)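 Agonists used: gardiquimod 7.5 μM (TLR7), R848 15.9 μM (TLR8), ODN2006 5 nM (TLR9), added after 30 min room-temperature compound pre-treatment (0.05 nM–50 μM) of receptor-overexpressing HEK-Blue cells. SEAP reporter (NF-κB/AP-1 driven) read after 22 h at 37 °C; inhibition scaled between agonist+DMSO and reference-inhibitor wells.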

human TLR8 = target: T2, human TLR8 (Homo sapiens, UniProt Q9NR97); assay: TLR8 inhibition reporter assay (HEK-Blue SEAP); type: cell-based; details: HEK-Blue cells overexpressing human TLR8, R848 15.9 μM, 22 hour incubation
T2 construct: host or cells: HEK-Blue cells
T2 sequence (Q9NR97 27-1041): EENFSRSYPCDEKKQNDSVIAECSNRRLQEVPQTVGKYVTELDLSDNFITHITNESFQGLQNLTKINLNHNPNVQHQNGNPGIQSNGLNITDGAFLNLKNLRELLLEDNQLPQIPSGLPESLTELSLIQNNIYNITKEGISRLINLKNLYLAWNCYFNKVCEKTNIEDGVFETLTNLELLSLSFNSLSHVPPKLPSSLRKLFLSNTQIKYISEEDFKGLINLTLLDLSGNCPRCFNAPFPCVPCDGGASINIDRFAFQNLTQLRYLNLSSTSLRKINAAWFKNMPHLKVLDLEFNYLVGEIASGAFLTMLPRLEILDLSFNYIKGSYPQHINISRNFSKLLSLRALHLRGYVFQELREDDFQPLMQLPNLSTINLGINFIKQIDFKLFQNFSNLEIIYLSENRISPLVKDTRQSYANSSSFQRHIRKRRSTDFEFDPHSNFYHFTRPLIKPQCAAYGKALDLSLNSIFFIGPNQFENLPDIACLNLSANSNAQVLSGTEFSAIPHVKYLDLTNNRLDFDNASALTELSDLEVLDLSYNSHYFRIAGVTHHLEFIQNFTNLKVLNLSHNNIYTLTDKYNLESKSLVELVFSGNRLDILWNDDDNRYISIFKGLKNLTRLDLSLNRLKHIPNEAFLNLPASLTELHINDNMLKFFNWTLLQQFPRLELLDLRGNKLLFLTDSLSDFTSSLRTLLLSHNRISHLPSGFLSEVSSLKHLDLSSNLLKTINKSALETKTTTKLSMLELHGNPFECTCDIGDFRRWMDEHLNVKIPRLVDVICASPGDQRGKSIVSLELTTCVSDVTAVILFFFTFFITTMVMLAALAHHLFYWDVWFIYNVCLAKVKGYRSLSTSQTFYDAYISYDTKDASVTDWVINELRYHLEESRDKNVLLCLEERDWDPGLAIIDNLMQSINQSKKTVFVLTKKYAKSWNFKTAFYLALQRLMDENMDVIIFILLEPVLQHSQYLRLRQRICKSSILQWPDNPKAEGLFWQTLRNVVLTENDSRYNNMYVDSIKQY
How it was run: as §1

Row | SMILES | IC50 (human TLR9) | IC50 (human TLR8)
1 | COc1cc(-c2cc3[nH]c(=O)n(C4CCC(N5CC(F)(F)C5)CC4)c3cc2C(C)C)cn2ncnc12 (single isomer, unassigned) [Example 296] | > 50 µM | 3.4 nM
2 | CCN(CC)[C@H]1CC[C@@H](n2c(=O)[nH]c3cc(-c4cc(C)c5ncnn5c4)c(C)cc32)CC1 [Example 20, 1-((1s,4s)-4-(diethylamino)cyclohexyl)-6-methyl-5-(8-methyl-[1,2,4]triazolo[1,5-a]pyridin-6-yl)-1,3-dihydro-2H-benzo[d]imidazol-2-one] | 3.35 µM | 14.4 nM
3 | COc1cc(-c2cc3[nH]c(=O)n(C4CCC(N5CCSCC5)CC4)c3cc2C(C)C)cn2ncnc12 (centres unmarked) [Example 250, 6-isopropyl-5-(8-methoxy-[1,2,4]triazolo[1,5-a]pyridin-6-yl)-1-(4-thiomorpholinocyclohexyl)-1,3-dihydro-2H-benzo[d]imidazol-2-one] | 7.25 µM | 0.36 nM
4 | COC[C@@H]1CCN(C2CCC(n3c(=O)[nH]c4cc(-c5cc(OC)c6ncnn6c5)c(C(C)C)cc43)CC2)C1 (single isomer, unassigned) [Example 290] | 7.1 µM | 0.53 nM
5 | COc1c(C)c(-c2cc3[nH]c(=O)n(C4CCC(N5CC(OC)C5)CC4)c3cc2C(C)C)cn2ncnc12 (centres unmarked) [Example 266, 6-isopropyl-5-(8-methoxy-7-methyl-[1,2,4]triazolo[1,5-a]pyridin-6-yl)-1-(4-(3-methoxyazetidin-1-yl)cyclohexyl)-1,3-dihydro-2H-benzo[d]imidazol-2-one] | 23 µM | 4.47 nM
6 | Cc1c(-c2cc3[nH]c(=O)n(C4CCC(N5CCCOCC5)CC4)c3cc2C(C)C)cn2ncnc2c1C (centres unmarked) [Example 272, 1-(4-(1,4-oxazepan-4-yl)cyclohexyl)-5-(7,8-dimethyl-[1,2,4]triazolo[1,5-a]pyridin-6-yl)-6-isopropyl-1,3-dihydro-2H-benzo[d]imidazol-2-one] | 6.75 µM | 0.49 nM
7 | COc1cc(-c2cc3[nH]c(=O)n(C4CCC(N5C6CCC5COC6)CC4)c3cc2C(C)C)cn2ncnc12 (single isomer, unassigned) [Example 253, 1-(4-(3-oxa-8-azabicyclo[3.2.1]octan-8-yl)cyclohexyl)-6-isopropyl-5-(8-methoxy-[1,2,4]triazolo[1,5-a]pyridin-6-yl)-1,3-dihydro-2H-benzo[d]imidazol-2-one] | 11.1 µM | 4.33 nM
8 | Cc1c(-c2cc3[nH]c(=O)n(C4CCC(N5CC6(COC6)C5)CC4)c3cc2C(C)C)cn2ncnc2c1C (single isomer, unassigned) [Example 281, 1-(4-(2-oxa-6-azaspiro[3.3]heptan-6-yl)cyclohexyl)-5-(7,8-dimethyl-[1,2,4]triazolo[1,5-a]pyridin-6-yl)-6-isopropyl-1,3-dihydro-2H-benzo[d]imidazol-2-one] | 13.1 µM | 2.67 nM
9 | COc1cc(-c2cc3[nH]c(=O)n(C4CCC(N5CC6(C5)CS(=O)(=O)C6)CC4)c3cc2C(C)C)cn2ncnc12 (single isomer, unassigned) [Example 245, 1-(4-(2,2-dioxido-2-thia-6-azaspiro[3.3]heptan-6-yl)cyclohexyl)-6-isopropyl-5-(8-methoxy-[1,2,4]triazolo[1,5-a]pyridin-6-yl)-1,3-dihydro-2H-benzo[d]imidazol-2-one] | 17.3 µM | 11.7 nM
10 | COc1cc(-c2cc3[nH]c(=O)n(C4CCC(N5CCC(OC)C5)CC4)c3cc2C(C)C)cn2ncnc12 (centres unmarked) [Example 285, 6-isopropyl-5-(8-methoxy-[1,2,4]triazolo[1,5-a]pyridin-6-yl)-1-(4-(3-methoxypyrrolidin-1-yl)cyclohexyl)-1,3-dihydro-2H-benzo[d]imidazol-2-one] | 8.31 µM | 0.13 nM
11 | COc1c(C)c(-c2cc3[nH]c(=O)n(C4CCC(N5CC(F)C5)CC4)c3cc2C(C)C)cn2ncnc12 (single isomer, unassigned) [Example 264, 1-(4-(3-fluoroazetidin-1-yl)cyclohexyl)-6-isopropyl-5-(8-methoxy-7-methyl-[1,2,4]triazolo[1,5-a]pyridin-6-yl)-1,3-dihydro-2H-benzo[d]imidazol-2-one] | 17.5 µM | 5.93 nM
12 | Cc1cc2c(cc1-c1cc(C)c3ncnn3c1)[nH]c(=O)n2[C@H]1CC[C@@H](NCCC(F)(F)F)CC1 [Example 31] | 2.96 µM | 1.32 nM

Second part, the compound after the results:

Row | IC50 (human TLR9) | IC50 (human TLR8) | SMILES
13 | 0.809 µM | 49.6 nM | COc1cc(-c2cc3[nH]c(=O)n([C@@H]4CCCNC4)c3cc2C)cn2ncnc12 [1 EH, (R)-5-(8-methoxy-[1,2,4]triazolo[1,5-a]pyridin-6-yl)-6-methyl-1-(piperidin-3-yl)-1,3-dihydro-2H-benzo[d]imidazol-2-one]
14 | 19.1 µM | 2.72 nM | COc1c(C)c(-c2cc3[nH]c(=O)n(C4CCC(N5CC(OC)C5)CC4)c3cc2C(C)C)cn2ncnc12 (centres unmarked) [Example 265, 6-isopropyl-5-(8-methoxy-7-methyl-[1,2,4]triazolo[1,5-a]pyridin-6-yl)-1-(4-(3-methoxyazetidin-1-yl)cyclohexyl)-1,3-dihydro-2H-benzo[d]imidazol-2-one]
15 | 16.4 µM | 32 nM | Cc1cc2c(cc1-c1cc(C)c3ncnn3c1)[nH]c(=O)n2[C@H]1CC[C@@H](N(C)C)CC1 [Example 19, 1-((1s,4s)-4-(dimethylamino)cyclohexyl)-6-methyl-5-(8-methyl-[1,2,4]triazolo[1,5-a]pyridin-6-yl)-1,3-dihydro-2H-benzo[d]imidazol-2-one]
16 | 2.5 µM | 6.99 nM | CCc1cc2c(cc1-c1cc(OC)c3ncnn3c1)[nH]c(=O)n2[C@@H]1CCCNC1 [119 FB, (R)-6-ethyl-5-(8-methoxy-[1,2,4]triazolo[1,5-a]pyridin-6-yl)-1-(piperidin-3-yl)-1,3-dihydro-2H-benzo[d]imidazol-2-one]
17 | > 50 µM | 80.8 nM | Cc1cc2c(cc1-c1cc(C)c3ncnn3c1)[nH]c(=O)n2[C@@H]1CCCN(C2COC2)C1 [Example 18, (R)-6-methyl-5-(8-methyl-[1,2,4]triazolo[1,5-a]pyridin-6-yl)-1-(1-(oxetan-3-yl)piperidin-3-yl)-1,3-dihydro-2H-benzo[d]imidazol-2-one]
18 | 19.7 µM | 2.91 nM | COc1c(C)c(-c2cc3[nH]c(=O)n(C4CCC(N5CC(F)C5)CC4)c3cc2C(C)C)cn2ncnc12 (single isomer, unassigned) [Example 263, 1-(4-(3-fluoroazetidin-1-yl)cyclohexyl)-6-isopropyl-5-(8-methoxy-7-methyl-[1,2,4]triazolo[1,5-a]pyridin-6-yl)-1,3-dihydro-2H-benzo[d]imidazol-2-one]
19 | 24.3 µM | 0.6 nM | COCCNC1CCC(n2c(=O)[nH]c3cc(-c4cn5ncnc5c(OC)c4C)c(C(C)C)cc32)CC1 (centres unmarked) [Example 258]
